Patent US5504244A, “Alkylarylketo acids” (Boehringer Ingelheim Pharmaceuticals, Inc., priority 1993, dated 1996)
Like-named read-outs stand apart in the source and are kept apart here.

What was measured:
[1] = system: 5-HETE biosynthesized by glycogen-stimulated polymorphonuclear leucocytes (PMNs); assay: Hydroxyacid Profile Assay (HPA): inhibition of 5-HETE synthesis in glycogen-elicited rabbit PMNs; format: cell-based; details: Oryctolagus cuniculus, Leucocyte; for inhibition at 100 µM: 5-HETE synthesis, read-out: Percent Inhibition (100 μM); for IC50: read-out: IC50 (50% inhibition of 5-HETE synthesis)
Description: As previously noted 5-HETE biosynthesis serves as a marker for arachidonic acid metabolism via the 5-lipoxygenase pathway which produces (poly)hydroxyeicosatetraenoic acids and the potent bronchoconstrictor and vasoactive leukotrienes LTC4, LTD4 and LTE4.
Buffer A (8.70 g NaCl; 0.27 g KCl; 0.42 g Na2 HPO4; 0.76 g KH2 PO4; and 1.00 g dextrose per liter H2 O; pH 7.0) (0.325 ml) is introduced into each of a battery of screwtop culture tubes. Then, a solution of a compound (0.100 ml) to be assayed is dispensed into individual tubes. Assays are performed in duplicate at 100 μM and 10 μM concentrations. Control tubes receive Buffer A (0 100 ml) in lieu of compound. Next, rabbit PMNs (2×10^7 cells/tube; 4×10^7cells/ml) (0.500 ml) are added to each tube. The rabbit PMN's used are elicited with glycogen and made into a preparation substantially as described by F. Hirata. et al (1979) Proc. Natl. Acad. Sci. USA, 76, 2640-2643. The tubes are vortexed and preincubated in a shaking 37° C. water bath for 15 minutes.
Thereafter, the tubes are removed from the water bath and calcium ionophore solution (400 μg/ml A-23187; Sigma Chemical Co., St. Louis, Mo.) (0.025 ml), ^14 C-arachidonic acid (0.25 μCi in 0.025 ethanol; New England Nuclear Products, Boston, Mass.) (0.025 ml) and calcium chloride solution (CaCl2.2H2 O ); 105.8 mg/10 […]) (0.025 ml) are added in that order. The tubes are vortexed and returned to the water bath for 30 minutes. The reaction is then terminated by the addition of HCl (0.8N, 0.025 ml).
Extraction and concentration of ^14 C-labeled 5-HETE is performed as follows. First, solution containing 2 parts ethyl acetate, 3 parts CH2 Cl2 and 0.01 ml unlabeled arachidonic acid is added (5.01 ml) to each tube. The tubes are capped and briefly vortexed. The contents of each tube is poured into a polypropylene column fitted with a porous polyethylene disc and Whatman phase separation filter paper. The organic phase is collected by gravity filtration into a conical centrifuge tube, While the aqueous phase is retained in the column by the phase separation paper. Each culture tube is rinsed once with the EtOAc:CH2 Cl2 solution (1.0 ml) and the wash added to the column. The organic phase is concentrated to (0.5 ml) using a Savant Speed Vac concentrator (Savant Instruments, Inc., Hicksville, N.Y.).
After concentration of the organic phase, the tubes are vortexed and stored covered on ice. An aliquot (0.01 ml) is then removed for liquid scintillation counting in a Beckman LS7500 Liquid Scintillation Counter (Beckman Instruments Corp., Fullerton, Calif.). Based on the count, the number of μl containing 1×10^5 cpm is calculated. This volume is applied to a silica gel covered glass plate in a 10 mm streak. The remaining fluid in the tube is measured via syringe and noted.
The TLC plate is placed in a chromatography chamber containing the following solvent system: CHCl3 :MeOH:HOAc:H2 O (v/v;90: 9:1:0.65). The plate is then air dried and counted on a Berthold Linear TLC Analyzer (Berthold Instruments, Inc., Pittsburgh, Pa.) for 30 minutes per lane if a dose response curve had been run, or for 5 min per lane if drug screening had been done. The integrated area of the 5-HETE band for each compound is converted to percent of control and analyzed. The percent inhibition at 100 μM compound concentration and the concentration (μM) which produces a 50% inhibition of 5-HETE synthesis (IC50), are determined for those compounds described in Examples 1-36, and are reported in Table 1 .

guinea pig ileal strips = assay: Modified Schultz-Dale Assay: inhibition of antigen-induced anaphylactic contraction of passively sensitized ileal strips; format: cell-based; details: Cavia porcellus; for IC50: value in parentheses
Description: In the classic Schultz-Dale assay, guinea pigs are sensitized with a known immunogen or passively sensitized with guinea pig antiserum to the immunogen, strips of ilea are recovered, and the extent of their contraction in response to a challenge exposure to the same antigen is observed as a measure of anaphylactic response. The experiments described here follow this same procedure while exposing the ileal strips to test compound before exposure to antigen challenge (preincubation) and, in some strips, also after antigen challenge (postincubation).
The male Hartley strain guinea pigs (450-650 g) whose ilea are used in this Schultz-Dale assay are passively sensitized with IgE antiovalbumin antiserum as follows. The antiserum is developed in another group of similar guinea pigs as described in Graziano, et al., J. Immunol. 127:1067-1070 (1981) and pooled. The test animals are then each passively sensitized by subcutaneous injection of the pooled antiserum (1 ml).
About 2-7 days after sensitization, the guinea pigs are sacrificed and the terminal ilea are removed. They are cut into strips (6 cm) and positioned in tissue baths (5 ml) of Tyrode's solution with atropine (1 μg/ml) at 37° C. One end of each strip is fixed to an immobile post and the other movably mounted to a Grass Ft. 0.03 linear force displacement transducer and a Grass Model 7 polygraph. The tension is set (at 1 gram) and the tissue is allowed to equilibrate (10 minutes). Tissue viability is tested by establishing a consistent response to histamine (0.5 μg/ml). After several histamine-induced contractions, mepyramine (1 μg/ml) is added to inhibit any contractions due to the anaphylactic release of endogenous histamine.
A minimum of 3 animals are used for each compound tested and, of the 6 strips from each animal, 2 strips are incubated (preincubation) with a test compound (final concentration 75 μM), 2 with an appropriate reference standard (BW-755C at 75 μM) and 2 with saline solution (control) for a predetermined period (5 minutes). After this initial incubation period, ovalbumin (100 μg/ml) is added to each bath and the resulting anaphylactic contraction measured. The data are recorded as of tension produced by the tissue in excess of the 1 gram tension that was initially set. At the peak of the contraction, a dose of the same test compound (75 μM) is added (postincubation) to one control strip and reference standard (FPL-55712 at 1.9 μM). The strips are monitored (1 minute) and any effect on the established contraction is recorded as described above.
Two types of data are derived from the above protocol. First, pre-antigen inhibition (prechallenge) is expressed as the percent inhibition in each of the strips preincubated with test compound measured against the averaged contractions of the two control strips. Prechallenge inhibition by the reference standard is also determined in each experiment as a positive control. The reference used consistently gives 60-80% inhibition. Second, post-antigen inhibition (postchallenge) is determined by measuring the decrease in anaphylactic contraction of a control strip produced by adding either a test compound or standard at the peak of the contraction. The reference used consistently gives 70-90% inhibition. The data in each experiment, therefore, consists of 2 prechallenge and 1 postchallenge value for both test compound and standard.

[2] = added at peak of contraction after antigen, read-out: Postchallenge mean percent inhibition
[3] = preincubation before ovalbumin antigen, read-out: Prechallenge mean percent inhibition
[4] = added at peak of contraction after antigen, read-out: Postchallenge IC50
[5] = preincubation before ovalbumin antigen, read-out: Prechallenge IC50

| SMILES | inhibition at 100 µM [1] [%] | IC50 [1] [µM] | inhibition at 75 µM (guinea pig ileal strips; [2]) [%] | inhibition at 75 µM (guinea pig ileal strips; [3]) [%] | IC50 (guinea pig ileal strips; [4]) [µM] | IC50 (guinea pig ileal strips; [5]) [µM] | inhibition at 75 µM (guinea pig ileal strips; positive control, preincubation, read-out: Prechallenge inhibition by the reference standard) [%] | inhibition at 1.9 µM (guinea pig ileal strips; 1.9 μM, positive control, added at peak of contraction, read-out: Postchallenge inhibition by the reference standard) [%] |
| --- | --- | --- | --- | --- | --- | --- | --- | --- |
| CCCCCCCc1ccc(C(=O)[C@@H]2CCCC[C@H]2C(=O)O)cc1 (relative stereo) [Example 23, Trans-2-(4-heptylbenzoyl)cyclohexane-1-carboxylic acid] | 70 | 5 | 76 | 100 | > 25 | 14 |  |  |
| CCCCCCCCCc1ccc(C(=O)[C@@H]2CCCC[C@H]2C(=O)O)cc1 (relative stereo) [Example 32, Trans-2-(4-n-nonylbenzoyl)cyclohexane-l-carboxylic acid] | 85 |  | 20 | 92 |  |  |  |  |
| NC1=NN(c2cccc(C(F)(F)F)c2)CC1 [BW-755C, reference compound] |  |  |  |  |  |  | 60 to 80 |  |
| CCCCCCc1ccc(C(=O)CCCCC(=O)O)cc1 [Example 5, 5-(4-n-Hexylbenzoyl)pentanoic acid] | 47 |  | 58 | 65 |  |  |  |  |
| CCCCCCCCc1ccc(C(=O)CCCCC(=O)O)cc1 [Example 6, 5-(4-n-Octylbenzoyl)pentanoic acid] | 77 |  | 0 | 63 |  |  |  |  |
| CCCCCCCc1ccc(C(=O)CCCCC(=O)O)cc1[N+](=O)[O-] [Example 7, 5-(3-Nitro-4-n-heptylbenzoyl)pentanoic acid] | 84 |  | 28 | 96 | > 75 | 14 |  |  |
| CCCCCCCc1ccc(C(=O)CCCCC(=O)O)cc1N [Example 8, 5-(3-Amino-4-n-heptylbenzoyl)pentanoic acid] | 47 |  | 48 | 94 | > 75 | 37 |  |  |
| CCCCCCOc1ccccc1C(=O)CCCCC(=O)O [Example 13, 5-(2-n-Hexyloxybenzoyl)pentanoic acid] | 64 |  | 43 | 87 | 45 | 15 |  |  |
| CCCCCc1ccc(C(=O)Cc2cccc(C(=O)O)c2)cc1 [Example 15, 3-(4-pentylphenacyl)benzoic acid] | 78 |  | 13 | 81 | > 75 | 27 |  |  |
| CCCCCCCc1ccc(C(=O)c2cccc(C(=O)O)c2)cc1 [Example 16, 3-(4-n-heptylbenzoyl)benzoic acid] | 75 | 4 | 63 | 86 | 57 | 12 |  |  |
| CCCCCCCc1ccc(C(=O)Cc2ccccc2C(=O)O)cc1 [Example 17, 2-(4-n-Heptylphenacyl)benzoic acid] | 80 |  | 100 | 90 | 33 | 10 |  |  |
| CCCCCCCc1ccc(C(=O)Cc2cccc(C(=O)O)c2)cc1 [Example 18, 3-(4-n-Heptylphenacyl)benzoic acid] | 73 |  | 70 | 97 | 51 | 10 |  |  |
| CCCCCCCCc1ccc(C(=O)Cc2cccc(C(=O)O)c2)cc1 [Example 19, 3-(4-n-Octylphenacyl)benzoic acid] | < 44 |  | 30 | 78 | > 75 | 51 |  |  |
| CCCCCCCc1ccc(C(=O)CC(C)(C)CC(=O)O)cc1 [Example 24, 4-(4-Heptylbenzoyl)-3,3-dimethylbutanoic acid] | 51 |  | 43 | 84 | 40 | 26 |  |  |
| CCCCOc1ccc(C(=O)c2cccc(C(=O)O)c2)c(OC)c1 [Example 25, 3-(4-Butoxy-2-methoxybenzoyl)benzoic acid] | 70 |  | 46 | 84 | 14 | 22 |  |  |
| CCCCOc1ccc(C(=O)c2cccc(C(=O)O)c2)c(O)c1 [Example 26, 3-(4-Butoxy-2-hydroxybenzoyl)benzoic acid] |  |  | 59 | 85 |  |  |  |  |
| CCCCOc1cc(OC)ccc1C(=O)c1cccc(C(=O)O)c1 [Example 28, 3-(2-Butoxy-4-methoxybenzoyl)benzoic acid] |  |  | 35 | 61 |  |  |  |  |
| CCCCCCOc1cc(C)ccc1C(=O)c1cccc(C(=O)O)c1 [Example 31, 3-(2-n-Hexyloxy-4-methylbenzoyl)-benzoic acid] |  |  | 59 | 81 | > 75 | 44 |  |  |
| CCCCCCCc1ccc(C(=O)c2cccc(-c3nn[nH]n3)c2)cc1 [Example 36, 5-3-(4-n-Heptylbenzoyl)phenyl!tetrazole] |  |  | 14 | 85 | > 75 | 7 |  |  |
| CCCc1c(OCC(O)COc2ccc3c(=O)cc(C(=O)O)oc3c2CCC)ccc(C(C)=O)c1O (centres unmarked) [FPL-55712, reference compound] |  |  |  |  |  |  |  | 70 to 90 |
